Laboratory results: patent US20060069132A1, “Azolecarboxamide herbicides” (priority 2004, published 2006)

Columns and labels:
rice = assay: Test B pre-/postemergence herbicide test; format: in vivo, Oryza sativa
Method in brief: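 Pre: seeds sown, then sprayed. Post: 1–4-leaf plants (2–18 cm) sprayed at the same time. Paddy: flooded, treated at 2-leaf stage. Formulation: non-phytotoxic solvent with surfactant. Greenhouse 13–15 days; visual 0–100 score relative to controls.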

large crabgrass = assay: Test C pre-/postemergence herbicide test; format: in vivo, Digitaria sanguinalis
Method in brief: (§1)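 Visual injury scores run from 0 (no effect) to 100 (complete control), assessed relative to untreated controls 12 to 14 days after treatment in the greenhouse. Chemicals were formulated in a non-phytotoxic solvent mixture with surfactant and applied to soil after planting or to emerged plants at the 1- to 4-leaf stage.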

tropical spiderwort = assay: Test E pre-/postemergence herbicide test; format: in vivo, Commelina benghalensis
Text: Seeds of plant species selected from bipinnate beggarticks (Bidens bipinnata L.), hairy beggarticks (Bidens radiata Thuill.), bermudagrass (Cynodon dactylon (L.) Pers.), Surinam grass (Urochloa decumbens (Staph) R. D. Webster, previously named Brachiaria decumbens Stapf), large crabgrass (Digitaria sanguinalis (L.) Scop.), green foxtail (Setaria viridis (L.) P. Beauv.), goosegrass (Eleusine indica (L.) Gaertn.), johnsongrass (Sorghum halepense (L.) Pers.), kochia (Kochia scoparia (L.) Schrad.), pitted morningglory (Ipomoea lacunosa L.), purple nutsedge (Cyperus rotundus L.), common ragweed (Ambrosia elatior L.), mustard (Brassica nigra (L.) W. D. J. Koch), guineagrass (Panicum maximum Jacq.), dallisgrass (Paspalum dilatatum Poir.), barnyardgrass (Echinochloa crus-galli (L). P. Beauv.), southern sandbur (Cenchrus echinatus L.), common sowthistle (Sonchus oleraceous L.), prickly sida (Sida spinosa L.), Italian ryegrass (Lolium multiflorum Lam.), common purslane (Portulaca oleracea L.), broadleaf signalgrass (Brachiaria platyphylla (Griseb.) Nash), common groundsel (Senecio vulgaris L.), common chickweed (Stellaria media (L.) Vill/Cyr.), tropical spiderwort (Commelina benghalensis L.), annual bluegrass (Poa annua L.), downy bromegrass (Bromus tectorum L.), itchgrass (Rottboellia cochinchinensis (L.) L.f.), quackgrass (Elytrigia repens (L.) Nevski), Canada horseweed (Erigeron Canadensis L.), field bindweed (Convolvulus arvensis L.), spotted spurge (Euphorbia maculata L.), common mallow (Malva sylvestris (=s silvestris) L.), and Russian thistle (Salsola kali L. ssp. Ruthenica (Iljin) Soo) were planted and treated preemergence with test chemicals formulated in a non-phytotoxic solvent mixture which included a surfactant.
At the same time, plants selected from these weed species were treated with postemergence applications of some of the test chemicals formulated in the same manner. Plants ranged in height from 2 to 18 cm (1- to 4-leaf stage) for postemergence treatments. Treated plants and controls were maintained in a greenhouse for 12 to 14 days, after which time all species were compared to controls and visually evaluated. Plant response ratings, summarized in Table E, are based on a scale of 0 to 100 where 0 is no effect and 100 is complete control. A dash (-) response means no test result.

woolly cupgrass = assay: Test C pre-/postemergence herbicide test; format: in vivo, Eriochloa villosa
Method in brief: as §1

eastern black nightshade = assay: Test C pre-/postemergence herbicide test; format: in vivo, Solanum ptycanthum; details: for Nightshade plant response rating: Preemergence, scale 0 to 100, 0 no effect, 100 complete control
Method in brief: as §1

[1] = 500 g ai/ha, visual rating 0-100, 0 no effect, 100 complete control, preemergence
[2] = 125 g ai/ha, scale 0 (no effect) to 100 (complete control), visual, 12 to 14 days, preemergence
[3] = 250 g ai/ha, scale 0 to 100 (0 no effect, 100 complete control), visual, 12 to 14 days, preemergence
[4] = Postemergence, 500 g ai/ha, scale 0 to 100
[5] = Postemergence, 250 g ai/ha, scale 0 to 100, 0 no effect, 100 complete control
[6] = Preemergence, 500 g ai/ha, scale 0 to 100, 0 no effect, 100 complete control
[7] = postemergence, 125 g ai/ha, scale 0 to 100
[8] = postemergence, 62 g ai/ha, scale 0 to 100
[9] = Preemergence, 62 g ai/ha, scale 0 to 100
[10] = Preemergence, 250 g ai/ha, scale 0 (no effect) to 100 (complete control)
[11] = Preemergence, 500 g ai/ha, scale 0 (no effect) to 100 (complete control)
[12] = Postemergence, 250 g ai/ha, scale 0 to 100
[13] = Preemergence, 125 g ai/ha, scale 0 to 100
[14] = 62 g ai/ha, preemergence, scale 0 to 100
[15] = 250 g ai/ha, scale 0-100, preemergence
[16] = 500 g ai/ha, scale 0 to 100 (0 no effect, 100 complete control), visual, 12 to 14 days, preemergence

Row | Structure (SMILES) | Plant response rating, Rice (rice; [1]) | Plant response rating, Crabgrass, Large (large crabgrass; [2]) | Crabgrass, Large plant response rating (large crabgrass; [6]) | Plant response rating, Spiderwort (tropical spiderwort; [9]) | Plant response rating, Spiderwort (tropical spiderwort; [10]) | Plant response rating, Spiderwort (tropical spiderwort; [11]) | Plant response rating, Cupgrass, Woolly (woolly cupgrass; [2]) | Cupgrass, Woolly plant response rating (woolly cupgrass; [6]) | Plant response rating, Nightshade (eastern black nightshade; [2]) | Nightshade plant response rating (eastern black nightshade; 500 g ai/ha) | Plant response rating, Spiderwort (tropical spiderwort; [4]) | Plant response rating, Spiderwort (tropical spiderwort; [12]) | Plant response rating, Spiderwort (tropical spiderwort; [13]) | Plant response rating, Spiderwort (tropical spiderwort; [7]) | Plant response rating, Crabgrass, Large (large crabgrass; [14]) | Plant response rating, Crabgrass, Large (large crabgrass; [15]) | Plant response rating, Cupgrass, Woolly (woolly cupgrass; [14]) | Plant response rating, Cupgrass, Woolly (woolly cupgrass; [15]) | Plant response rating, Nightshade (eastern black nightshade; [14]) | Plant response rating, Nightshade (eastern black nightshade; [15]) | further results
1 | CCNC(=O)c1cccc(NC(=O)c2cc(C(C)(C)C)nn2CC)n1 [Compound 144] | 30 | 70 | 100 | 60 | 60 | 100 | 5 | 70 | 100 | 100 |  |  |  |  |  |  |  |  |  |  | Plant response rating, Rice (rice; preemergence, 125 g ai/ha, 0 to 100 scale, 0 is no effect, 100 is complete control): 20; Plant response rating (0 = no effect, 100 = complete control), Crabgrass, Large (large crabgrass; 62 g ai/ha, preemergence): 50; Plant response rating, Crabgrass, Large (large crabgrass; [3]): 85; Crabgrass, Large plant response rating (large crabgrass; [4]): 100; Plant response rating, Crabgrass, Large (large crabgrass; [5]): 100; Plant response rating, Crabgrass, Large (large crabgrass; [7]): 10; Plant response rating, Crabgrass, Large (large crabgrass; [8]): 0; Plant response rating, Spiderwort (tropical spiderwort; Preemergence, 125 g ai/ha, scale 0 (no effect) to 100 (complete control)): 60; Plant response rating (0 = no effect, 100 = complete control), Cupgrass, Woolly (woolly cupgrass; 62 g ai/ha, preemergence): 0; Plant response rating, Cupgrass, Woolly (woolly cupgrass; [3]): 5; Cupgrass, Woolly plant response rating (woolly cupgrass; [4]): 50; Plant response rating, Cupgrass, Woolly (woolly cupgrass; [5]): 50; Plant response rating, Cupgrass, Woolly (woolly cupgrass; [7]): 30; Plant response rating, Cupgrass, Woolly (woolly cupgrass; [8]): 0; Plant response rating (0 = no effect, 100 = complete control), Nightshade (eastern black nightshade; 62 g ai/ha, preemergence): 90
2 | CCn1nc(C(C)(C)C)cc1C(=O)Nc1cc(C(=O)N(C)C)ccn1 [Compound 156, 2-[[[3-(1,1-dimethylethyl)-1-ethyl-1H-pyrazol-5-yl]carbonyl]amino]-N,N-dimethyl-4-pyridinecarboxamide] |  |  | 100 | 30 | 50 | 80 |  | 90 |  | 100 | 65 | 50 | 50 | 30 |  |  |  |  |  |  | plant injury at 500 g/ha (rice; Oryza sativa, pre-emergence, 336 h, 500 g ai/ha, visual rating 0-100, 0 no effect, 100 complete control, read-out: Plant response rating, Rice): 100%; plant injury at 125 g/ha (rice; Oryza sativa, pre-emergence, 336 h, preemergence, 125 g ai/ha, 0 to 100 scale, 0 is no effect, 100 is complete control, read-out: Plant response rating, Rice): 90%; pest or weed control at 62 g/ha (large crabgrass; Digitaria sanguinalis, pre-emergence, 312 h, 62 g ai/ha, preemergence, scale 0 to 100, read-out: Plant response rating, Crabgrass, Large): 60%; pest or weed control at 125 g/ha (large crabgrass; Digitaria sanguinalis, pre-emergence, 312 h, 125 g ai/ha, scale 0 (no effect) to 100 (complete control), visual, 12 to 14 days, read-out: Plant response rating, Crabgrass, Large): 85%; pest or weed control at 250 g/ha (large crabgrass; Digitaria sanguinalis, pre-emergence, 312 h, 250 g ai/ha, scale 0 to 100 (0 no effect, 100 complete control), visual, 12 to 14 days, read-out: Plant response rating, Crabgrass, Large): 90%; Plant response rating, Spiderwort (tropical spiderwort; [8]): 20; pest or weed control at 62 g/ha (woolly cupgrass; Eriochloa villosa, pre-emergence, 312 h, 62 g ai/ha, preemergence, scale 0 to 100, read-out: Plant response rating, Cupgrass, Woolly): 33%; pest or weed control at 125 g/ha (woolly cupgrass; Eriochloa villosa, pre-emergence, 312 h, 125 g ai/ha, scale 0 (no effect) to 100 (complete control), visual, 12 to 14 days, read-out: Plant response rating, Cupgrass, Woolly): 70%; pest or weed control at 250 g/ha (woolly cupgrass; Eriochloa villosa, pre-emergence, 312 h, 250 g ai/ha, scale 0 to 100 (0 no effect, 100 complete control), visual, 12 to 14 days, read-out: Plant response rating, Cupgrass, Woolly): 80%; pest or weed control at 62 g/ha (eastern black nightshade; pre-emergence, 62 g ai/ha, preemergence, scale 0 to 100, read-out: Plant response rating, Nightshade): 75%; pest or weed control at 125 g/ha (eastern black nightshade; pre-emergence, 125 g ai/ha, scale 0 (no effect) to 100 (complete control), visual, 12 to 14 days, read-out: Plant response rating, Nightshade): 93%
3 | CCNC(=O)c1ccc(F)c(NC(=O)c2cn(C(C)(C)C)nc2CC)c1 [Compound 193] | 100 | 85 | 100 |  | 90 | 95 | 40 | 70 | 50 | 100 | 70 | 50 | 80 | 20 | 40 | 85 | 10 | 60 | 0 | 85 | Rice plant response rating (0 to 100 scale) (rice; 125 g ai/ha, 0 = no effect, 100 = complete control, preemergence): 80
4 | CCc1nn(C(C)C)nc1C(=O)Nc1cccc(C(=O)N2CCCCC2)c1 [Compound 385] |  |  |  |  | 0 |  |  |  |  |  |  |  | 0 |  | 90 | 100 | 0 | 80 |  |  | Plant response rating (0 = no effect, 100 = complete control), Crabgrass, Large (large crabgrass; 125 g ai/ha, preemergence): 95; Plant response rating, Crabgrass, Large (large crabgrass; [16]): 100; Plant response rating (0 = no effect, 100 = complete control), Cupgrass, Woolly (woolly cupgrass; 125 g ai/ha, preemergence): 60; Plant response rating, Cupgrass, Woolly (woolly cupgrass; [16]): 95
5 | CCc1nn(C(C)C)nc1C(=O)Nc1cccc(C(=O)N(C)CC)c1 [Compound 386] |  |  |  |  | 70 |  |  |  |  |  |  |  | 10 |  | 98 | 100 | 50 | 95 | 90 | 95 | Plant response rating (0 = no effect, 100 = complete control), Crabgrass, Large (large crabgrass; 125 g ai/ha, preemergence): 100; Plant response rating, Crabgrass, Large (large crabgrass; [16]): 100; Plant response rating (0 = no effect, 100 = complete control), Cupgrass, Woolly (woolly cupgrass; 125 g ai/ha, preemergence): 90; Plant response rating, Cupgrass, Woolly (woolly cupgrass; [16]): 95; Plant response rating (0 = no effect, 100 = complete control), Nightshade (eastern black nightshade; 125 g ai/ha, preemergence): 95; Plant response rating, Nightshade (eastern black nightshade; [16]): 100
